Results on 15 molecules are retold here after patent US11400054B2, “Method for treating an autoimmune neurological disease and/or neurodegenerative disease and pharmaceutical formulations for a liquid dosage form and a controlled release dosage form” (INDUSTRIAL TECHNOLOGY RESEARCH INSTITUTE, priority 2017, dated 2022).

Series [1] deals with LPS-induced IL-6 expression in BV-2 cells. The series can be described thus: LPS-induced IL-6 expression in BV-2 cells (IL-6 ELISA). The format is cell-based. Conditions: Mus musculus, compound 1 hour then LPS 100 ng/mL, 24 hours. The procedure:
(§1) BV-2 cells (8×10^3 cells/mL) were seeded in a 96-well plate cultured under 37° C., 5% CO2 overnight. The cells were divided into a naïve group (without any treatment), a control group (only treated with LPS) and experimental groups (treated with LPS and a testing compound).
(§2) The supernatant in the well was removed. After that, different concentrations of a testing compound was added to the cells to react with the cells for 1 hour (culture medium was added to the cells for a control group), and then LPS (100 ng/mL) was added to the cell.
After reacting for 24 hours, the supernatant in the plate was taken and IL-6 expressing amount was detected by Mouse IL-6 ELISA Ready-SET-Go (Invitrogen; Cat. No. 88-7064-88) according to the manufacturer's recommended procedure.
(§3) CC50 value for cell viability of a testing compound and IC50 value for IL-6 expression of a testing compound were calculated based on cell viabilities at different concentrations of the testing compound and IL-6 expression amounts of the cells at different concentrations of the testing compound, respectively.

A short description of series [2]: Cell viability of BV-2 cells (MTT). The format is cell-based. Conditions: mouse, LPS 100 ng/mL. On the procedure: as §1, §2
Moreover, 50 μl of culturing medium containing MTT (0.5 mg/mL) was added to the cell part in the plate and cultured under 37° C. and 5% CO2 for 90 minutes, and then 150 μL DMSO was added to the plate and the plate was shaken for 5-10 minutes. Finally, OD570 was read by a continuous wavelength microplate analyzer, and cell viability was calculated using the following formula: Cell viability (%)=(OD value of the experimental group/OD value of the control group)×100.
as §3

Series [3] has as its system MOG induced IFN-γ secretion in splenocyte. The series can be described thus: MOG induced IFN-γ secretion in splenocyte isolated from mice of EAE model (ELISA). Conditions: Mus musculus, 20 μg/ml MOG peptide, 48 hours; for inhibition at 100 µM: concentration 100 μM; for inhibition at 200 µM: concentration 200 μM; for inhibition at 300 µM: concentration 300 μM. It counts as cell-based, C57BL/6 mice. The procedure:
(§4) EAE was induced in C57BL/6 mice. The mice were immunized on Day 0 by subcutaneous injection with 200 μg of myelin oligodendrocyte glycoprotein (MOG) in […] containing 400 μg of heat-killed Mycobaterium tuberculosis H37Ra. Pertussis toxin (500 ng) was intraperitoneally injected on Day 0 and Day 2 after the mice were immunized with the emulsion. The mice were sacrifice on Day 30 post-immunization. Spleens of the mice were harvest and then splenocytes were isolated and cultured in presence or absence of the 20 μg/ml MOG peptide in 10% FBS RPMI1640 medium. Testing compound was added to the culture and maintained at 37° C. 5% CO2 for 48 hours. The concentrations of IFN-γ and IL-2 in the supernatant of the culture were determined by ELISA according to the manufacturer's instructions.

The test system of series [4] is MOG induced IL-2 secretion in splenocyte. The series can be described thus: MOG induced IL-2 secretion in splenocyte isolated from mice of EAE model (ELISA). It counts as cell-based, C57BL/6 mice. Conditions: Mus musculus, 20 μg/ml MOG peptide, 48 hours; for inhibition at 100 µM: concentration 100 μM; for inhibition at 200 µM: concentration 200 μM; for inhibition at 300 µM: concentration 300 μM. The procedure:
as §4

Series [5] relates to EAE induced mice. Briefly: Therapeutic administration experiment in EAE induced mice, EAE score. It counts as in vivo, C57BL/6 mice. Conditions: 14 days after onset.
The subject of series [6] is spinal cords of the EAE induced mice. Briefly: Histology of spinal cord lesions in EAE induced mice (H&E, Luxol fast blue). It counts as in vivo, C57BL/6 mice. Conditions: 100 mg/kg three times a day, day 15 after onset. The procedure: The mice were euthanized at day 15 post to onset of EAE. Spinal cord was removed and fixed in 10% phosphate-buffered formaldehyde. Paraffin-embedded 3 μm-thick cross sections of spinal cord were stained with hematoxylin and eosin in order to confirm tissue lesion. Another slides were stained with Luxol fast blue for examination of demyelination. Lesions were evaluated based on demyelination, inflammation, axonal swelling and gliosis which are scored based on the criteria shown in Table 2: […]

Series [7] has as its system EAE induced mice. The series can be described thus: Prophylaxis administration experiment in EAE induced mice, EAE score. The format is in vivo, C57BL/6 mice. Conditions: 100 mg/kg one time a day from Day 7 after induction, 14 days; vs vehicle (FIG. 10).

Molecules are shown by their SMILES.

Regarding `CC1(C)OC2CC1CC1OC21C` (stereo not shown) [TMUS-0503-c2], the half-maximal inhibitory concentration (IC50) in series [1] lay in the range of 30 to 100 µM. This molecule gave a CC50 at 24 h in series [2] of more than 100 µM. In addition, the inhibition at 100 µM in series [3] was 31%; in series [4], 13%.

In the case of `CCCCCC(=O)O[C@H]1C[C@H](C(C)(C)O)CC=C1C` [TMUS-0124-4f], half-maximal inhibition in series [1] (IC50) required 38 µM. The molecule further showed a CC50 at 24 h in series [2] of more than 100 µM. Also, the inhibition at 200 µM in series [3] is 59%; in series [4] it was 8%.

In series [1], `C[C@H]1CC[C@H](C(C)(C)O)C[C@H]1O` [TMUS-0503-H3] showed a 50% inhibitory concentration (IC50) of 30 to 100 µM. Also, in series [2], the CC50 at 24 h is more than 100 µM.

Molecule `CC1CCC(C(C)(C)O)CC1=O` (stereo not shown) [TMUS-0503-H2] displayed a half-inhibitory concentration (IC50) in series [1] of less than 10 µM. In addition, the CC50 at 24 h in series [2] is more than 100 µM. For the same molecule, the inhibition at 100 µM in series [3] was found to be 33%; in series [4] it was 16%.

As for `CO[C@H]1C[C@H](C(C)(C)O)CC=C1C` [TMUS-0503-m1], the 50% inhibitory concentration (IC50) in series [1] was less than 10 µM. The molecule further had a CC50 at 24 h in series [2] of more than 100 µM. For the same molecule, the inhibition at 100 µM is 17% in series [3] and 21% in series [4].

`CC1=CC[C@@H](C(C)(C)O)C[C@@H]1OC(=O)CCc1ccccc1` [TMUS-0124-4c] showed a half-maximal inhibitory concentration (IC50) in series [1] of 38.2 µM. In addition, the cytotoxic concentration (CC50) at 24 h in series [2] is more than 100 µM. The inhibition at 200 µM in series [3] is 78%; in series [4] it was 23%.

In the case of `CC1=CC[C@@H](C(C)(C)O)C[C@@H]1OCc1ccccc1` [TMUS-0503-b1], in series [1], the IC50 was less than 10 µM. The half-maximal cytotoxic concentration (CC50) at 24 h in series [2] was more than 100 µM. In addition, the inhibition at 300 µM in series [3] was determined as 20%; in series [4] it was 15%.

In series [1], `CC1=CCC2CC1OC2(C)C` (stereo not shown) [TMUS-0503-c1] showed a 50% inhibitory concentration (IC50) of 30 to 100 µM. This molecule also showed a 50% cytotoxic concentration (CC50) at 24 h in series [2] of more than 100 µM. Further, the inhibition at 300 µM amounted to 23% in series [3] and 22% in series [4].

Turning to `CC1=CC[C@H](C(C)(C)O)C[C@H]1O` [SK1, (+) trans-Sobrerol], the inhibition at 200 µM in series [3] worked out at 24%; in series [4], 0%.

In the case of `COc1ccc(C(=O)O[C@H]2C[C@H](C(C)(C)O)CC=C2C)cc1` [TMUS-0124-4e], half-maximal inhibition in series [1] (IC50) required 50.8 µM. The molecule further gave a half-maximal cytotoxic concentration (CC50) at 24 h in series [2] of more than 100 µM. In addition, the inhibition at 100 µM is 86% in series [3] and 59% in series [4].

For the molecule `CC1=CC[C@@H](C(C)(C)O)C[C@@H]1O` [SK2, (−) trans-sobrerol], in series [1], the IC50 stood at 183 ± 21.8 µM. In addition, in series [2], the 50% cytotoxic concentration (CC50) at 24 h is more than 200 µM. Also, the inhibition at 200 µM in series [3] came out at 34%; in series [4], 0%. In addition, the “EAE score (symptoms of EAE)” value in series [5] (30, 100 mg/kg one time a day, 50, 100 mg/kg BID, 10-100 mg/kg TID, vs vehicle (FIGS. 5A-5C)) is listed as “significantly alleviating symptoms of EAE”; in series [7] it was “significantly alleviating symptoms of EAE”. Also, in series [6] (vs vehicle (FIG. 7B)), the “axonal swelling in spinal cords” value is reported as “effectively alleviating”. Besides, in series [6] (vs vehicle (FIG. 7C)), the “inflammation in spinal cords” value is “effectively alleviating”. In series [6] (vs vehicle (FIG. 7D)), the “gliosis in spinal cords” value is on record as “effectively alleviating”. The “demyelination in spinal cords” value in series [6] (vs vehicle (FIGS. 6, 7A)) was “effectively alleviating”.

`CC1=CC[C@@H](C(C)(C)O)C[C@@H]1OC(=O)c1ccc([N+](=O)[O-])cc1` [TMUS-0124-4d]: the IC50 in series [1] came to 48.1 µM. Moreover, the CC50 at 24 h in series [2] is more than 100 µM. Also, the inhibition at 200 µM worked out at 79% in series [3] and 22% in series [4].

The molecule `CC1=CCC(C(C)(C)O)CC1=O` (stereo not shown) [TMUS-0503-o1] gave a concentration for half-maximal inhibition (IC50) in series [1] of less than 10 µM. The molecule also displayed a CC50 at 24 h in series [2] of more than 100 µM. Further, the inhibition at 200 µM in series [3] was 56%; in series [4], 40%.

Consider `CC1=CCC(C(C)(C)O)CC1O` (stereo not drawn) [SK0, (+)(−) trans-Sobrerol, reference compound], for which the inhibition at 300 µM in series [3] amounted to 10%; in series [4], 16%. The “EAE score (symptoms of EAE)” value in series [5] (100 mg/kg one time a day, 15, 50, 100 mg/kg BID, vs vehicle (FIGS. 8A, 8B)) is on record as “significantly alleviating symptoms of EAE”.

`C[C@@H]1CC[C@H](C(C)(C)O)C[C@H]1O` [TMUS-0503-H4] registered a concentration for half-maximal inhibition (IC50) in series [1] of 30 to 100 µM. In series [2], this molecule had a half-maximal cytotoxic concentration (CC50) at 24 h of more than 100 µM. Besides, the inhibition at 300 µM is 42% in series [3] and 19% in series [4].
